details: cited from earlier work

SMILES | lowering of the rate of new-onset Diabetes Mellitus relative to the β-blocker atenolol
CCCCc1nc(Cl)c(CO)n1Cc1ccc(-c2ccccc2-c2nn[nH]n2)cc1 [losartan, Losartan] | 25%

details: 5 microgram per mL
Procedure: Liver microsomal stability assays were conducted at 1 mg per mL liver microsome protein with an NADPH-generating system in 2% NaHCO3 (2.2 mM NADPH, 25.6 mM glucose 6-phosphate, 6 units per mL glucose 6-phosphate dehydrogenase and 3.3 mM MgCl2). Test compounds were prepared as solutions in 20% acetonitrile-water and added to the assay mixture (final assay concentration 5 microgram per mL) and incubated at 37° C. Final concentration of acetonitrile in the assay were <1%. Aliquots (50 μL) were taken out at times 0, 15, 30, 45, and 60 minutes, and diluted with ice cold acetonitrile (200 μL) to stop the reactions. Samples were centrifuged at 12000 RPM for 10 minutes to precipitate proteins. Supernatants were transferred to microcentrifuge tubes and stored for LC/MS/MS analysis of the degradation half-life of the test compounds.

SMILES | increase in the degradation half-life as compared to the non-isotopically enriched drug (losartan)
[2H]C(O)c1c(Cl)nc(C([2H])C([2H])([2H])C([2H])([2H])C([2H])([2H])[2H])n1Cc1ccc(-c2ccccc2-c2nn[nH]n2)cc1 (stereo not shown) [Example 3, d9-{2-Butyl-5-chloro-3-[2′-(2H-tetrazol-5-yl)-biphenyl-4-ylmethyl]-3H-imidazol-4-yl}-methanol] | 30-180%
[2H]C(c1nc(Cl)c(CO)n1Cc1ccc(-c2ccccc2-c2nn[nH]n2)cc1)C([2H])([2H])C([2H])([2H])C([2H])([2H])[2H] (stereo not shown) [Example 2, d8-{2-Butyl-5-chloro-3-[2′-(2H-tetrazol-5-yl)-biphenyl-4-ylmethyl]-3H-imidazol-4-yl}-methanol] | 30-180%
[2H]C([2H])(O)c1c(Cl)nc(CCCC)n1Cc1ccc(-c2ccccc2-c2nn[nH]n2)cc1 [Example 1, d2-{2-Butyl-5-chloro-3-[2′-(2H-tetrazol-5-yl)-biphenyl-4-ylmethyl]-3H-imidazol-4-yl}-methanol] | 30-180%

Second part, the compound after the results:

increase in the degradation half-life as compared to the non-isotopically enriched drug (losartan) | SMILES
30-180% | [2H]C(O)c1c(Cl)nc(C([2H])([2H])CCC)n1Cc1ccc(-c2ccccc2-c2nn[nH]n2)cc1 (stereo not shown) [Example 5, d3-{2-Butyl-5-chloro-3-[2′-(2H-tetrazol-5-yl)-biphenyl-4-ylmethyl]-3H-imidazol-4-yl}-methanol]
30-180% | [2H]C([2H])(O)c1c(Cl)nc(C([2H])([2H])CCC)n1Cc1ccc(-c2ccccc2-c2nn[nH]n2)cc1 [Example 6, d4-{2-Butyl-5-chloro-3-[2′-(2H-tetrazol-5-yl)-biphenyl-4-ylmethyl]-3H-imidazol-4-yl}-methanol]
30-180% | [2H]C(c1nc(Cl)c(C([2H])([2H])O)n1Cc1ccc(-c2ccccc2-c2nn[nH]n2)cc1)C([2H])([2H])C([2H])([2H])C([2H])([2H])[2H] (stereo not shown) [Example 4, d10-{2-Butyl-5-chloro-3-[2′-(2H-tetrazol-5-yl)-biphenyl-4-ylmethyl]-3H-imidazol-4-yl}-methanol]

From US20080132555A1, “PREPARATION AND UTILITY OF SUBSTITUTED PHENYLTETRAZOLES” (AUSPEX PHARMACEUTICALS, INC., priority 2006, published 2008)
